# What was measured:
# Type in all cases: in vivo, rats
# [1] = Morphine abstinence model: thymus condition (mass, nitrites); settings: for Nitrites in thymus supernatant: control 0.331 ± 0.041; for Thymus mass: control 230 ± 14
# Source text: The spectrometric method is based the reaction of nitrites with the Griss reagent (a mixture of 2% solution of sulfanilamide and 0.2% N-(1-naphthyl)ethylene diamine. At the first step the nitrite reacts with sulfanilamide with formation of diazonium salt, and then with the second component to form azo dye with an adsorption maximum at 540 nm. For reduction of nitrates into nitrites, a fermentative method was used with bacterial reductase nitrate (Grisham M. B. et al., 1995). The samples of plasma and supernathant of the liver deproteinizated at 100° C. for 5 minutes incubated for 30 minutes at 37° C. in 50.0 mM of HEPES pH 7.4 in the presence of 0.2 unit/ml of Aspergillus reductase nitrate, 5.0 mkM of FAD and 0.1 mM of NAD-Ph. At the end of the reaction lactate dehydrogenase and pyruvate were added for isolation of NAD-Ph interfering with the Griss reaction. Then the Griss reagent was added and after 10-minute incubation the light absorption of the samples was measured at 540 nm. To amount of NOX^− was calculated using sodium nitrate as a standard.
# The effect of the compounds according to the invention on the condition of the thymus of the rats was also investigated: a control group, an experimental group of morphinized animals and an experimental group of animals were first morphinized and then injected with the compounds according to the invention. The experiment was carried out similarly to that described above.
# [2] = Chronic toxicity of suppositories: indexes of peripheral blood; set-up: Thrombocytes: unit not given here
# [3] = Chronic toxicity of suppositories: indexes of urine; settings: rat, in vivo
# Method: The experiments were conducted on inbred rats.
# [4] = Administration of morphine and compound
# [5] = male rats, suppositories rectally, 50 mg/kg, 1 month/2 months (one value given), control 0
# [6] = male rats, suppositories rectally, 500 mg/kg, 1 month/2 months (one value given), control 0
smiles,measurement,setting,value
"O=c1[nH][nH]c(=O)c2ncccc12.[Li] [Compound 6, lithium salt of pyrido[2,3-d]-6H-pyridazine-5,8-dione]",Nitrites in thymus supernatant,[1]; Administration of compounds,0.424 ± 0.04 nmol/mg of protein
same,Thymus mass,[1]; Administration of compounds,242 ± 17 mg
same,Nitrites in thymus supernatant,[1]; [4],0.419 ± 0.02 nmol/mg of protein
same,Thymus mass,[1]; [4],207 ± 14 mg
"O=c1[nH]n([C@@H]2O[C@H](CO)[C@@H](O)[C@H]2O)c(=O)c2nc(O)cnc12.[Na].[Na] [Compound 23, disodium salt of 2-hydroxy-7-(β-D-ribofuranosile)pyrazine[2,3—Cl]-6H-pyridazine-5,8-dione]",Basophiles,[2]; [5],0%
same,Juveniles,[2]; [5],0%
same,Stab neutrophil,"[2]; male rats, suppositories rectally, 50 mg/kg, 1 month, control 0.8 ± 0.4",1.1 ± 0.5%
same,REE,"[2]; male rats, suppositories rectally, 50 mg/kg, 1 month, control 2.2 ± 0.4",1.7 ± 0.8 mm/h
same,Reticulocytes,"[2]; male rats, suppositories rectally, 50 mg/kg, 1 month, control 2.8%0.3",2.7 ± 0.3%
same,Eosinophiles,"[2]; male rats, suppositories rectally, 50 mg/kg, 1 month, control 4.0 + 0.3",3.6 ± 0.5%
same,Erythrocytes,"[2]; male rats, suppositories rectally, 50 mg/kg, 1 month, control 5.6 ± 0.1",5.7 ± 0.1 mln/mm^3
same,Hemoglobin,"[2]; male rats, suppositories rectally, 50 mg/kg, 1 month, control 10.5 ± 0.2",10.7 ± 0.1 mmol/L
same,Leukocyte,"[2]; male rats, suppositories rectally, 50 mg/kg, 1 month, control 17.4 ± 1.3",15.5 ± 1.1 thousand/mm^3
same,Haematocrite,"[2]; male rats, suppositories rectally, 50 mg/kg, 1 month, control 45.9 ± 1.7",47.7 ± 1.2%
same,Average volume of erythrocytes,"[2]; male rats, suppositories rectally, 50 mg/kg, 1 month, control 81.4 ± 1.7",82.7 ± 1.6 Mkm^3
same,"Coagulation, time","[2]; male rats, suppositories rectally, 50 mg/kg, 1 month, control 152 ± 10.2",150 ± 15 s
same,Thrombocytes,"[2]; male rats, suppositories rectally, 50 mg/kg, 1 month, control 707 ± 23",659 ± 18
same,REE,"[2]; male rats, suppositories rectally, 50 mg/kg, 2 months, control 1.4 ± 0.2",1.5 ± 0.1 mm/h
same,Stab neutrophil,"[2]; male rats, suppositories rectally, 50 mg/kg, 2 months, control 2.4 ± 0.4",1.6 ± 0.2%
same,Reticulocytes,"[2]; male rats, suppositories rectally, 50 mg/kg, 2 months, control 2.9 ± 0.2",2.8 ± 0.1%
same,Eosinophiles,"[2]; male rats, suppositories rectally, 50 mg/kg, 2 months, control 4.4 + 1.2",4.0 ± 0.7%
same,Erythrocytes,"[2]; male rats, suppositories rectally, 50 mg/kg, 2 months, control 6.1 ± 0.1",6.0 ± 0.2 mln/mm^3
same,Hemoglobin,"[2]; male rats, suppositories rectally, 50 mg/kg, 2 months, control 11.4 ± 0.2",11.0 ± 0.1 mmol/L
same,Leukocyte,"[2]; male rats, suppositories rectally, 50 mg/kg, 2 months, control 19.1 ± 1.9",17.6 ± 1.2 thousand/mm^3
same,Haematocrite,"[2]; male rats, suppositories rectally, 50 mg/kg, 2 months, control 45.9 ± 1.8",46.5 ± 1.3%
same,Average volume of erythrocytes,"[2]; male rats, suppositories rectally, 50 mg/kg, 2 months, control 74.6 + 1.9",77.5 ± 1.7 Mkm^3
same,"Coagulation, time","[2]; male rats, suppositories rectally, 50 mg/kg, 2 months, control 316 ± 8",313 ± 17 s
same,Thrombocytes,"[2]; male rats, suppositories rectally, 50 mg/kg, 2 months, control 593 ± 14",586 ± 28
same,Basophiles,[2]; [6],0%
same,Juveniles,[2]; [6],0%
same,Stab neutrophil,"[2]; male rats, suppositories rectally, 500 mg/kg, 1 month, control 0.8 ± 0.4",1.0 ± 0.3%
same,REE,"[2]; male rats, suppositories rectally, 500 mg/kg, 1 month, control 2.2 ± 0.4",2.0 ± 0.3 mm/h
same,Reticulocytes,"[2]; male rats, suppositories rectally, 500 mg/kg, 1 month, control 2.8%0.3",3.1 ± 0.1%
same,Eosinophiles,"[2]; male rats, suppositories rectally, 500 mg/kg, 1 month, control 4.0 + 0.3",3.3 ± 0.7%
same,Erythrocytes,"[2]; male rats, suppositories rectally, 500 mg/kg, 1 month, control 5.6 ± 0.1",5.7 ± 0.2 mln/mm^3
same,Hemoglobin,"[2]; male rats, suppositories rectally, 500 mg/kg, 1 month, control 10.5 ± 0.2",10.7 ± 0.2 mmol/L
same,Leukocyte,"[2]; male rats, suppositories rectally, 500 mg/kg, 1 month, control 17.4 ± 1.3",16.4 ± 1.1 thousand/mm^3
same,Haematocrite,"[2]; male rats, suppositories rectally, 500 mg/kg, 1 month, control 45.9 ± 1.7",47.9 ± 1.1%
same,Average volume of erythrocytes,"[2]; male rats, suppositories rectally, 500 mg/kg, 1 month, control 81.4 ± 1.7",83.5 ± 1.7 Mkm^3
same,"Coagulation, time","[2]; male rats, suppositories rectally, 500 mg/kg, 1 month, control 152 ± 10.2",156 ± 11 s
same,Thrombocytes,"[2]; male rats, suppositories rectally, 500 mg/kg, 1 month, control 707 ± 23",678 ± 18
same,REE,"[2]; male rats, suppositories rectally, 500 mg/kg, 2 months, control 1.4 ± 0.2",1.7 ± 0.3 mm/h
same,Stab neutrophil,"[2]; male rats, suppositories rectally, 500 mg/kg, 2 months, control 2.4 ± 0.4",1.6 ± 0.2%
same,Reticulocytes,"[2]; male rats, suppositories rectally, 500 mg/kg, 2 months, control 2.9 ± 0.2",3.4 ± 0.1%
same,Eosinophiles,"[2]; male rats, suppositories rectally, 500 mg/kg, 2 months, control 4.4 + 1.2",3.8 ± 1.3%
same,Erythrocytes,"[2]; male rats, suppositories rectally, 500 mg/kg, 2 months, control 6.1 ± 0.1",6.4 ± 0.2 mln/mm^3
same,Hemoglobin,"[2]; male rats, suppositories rectally, 500 mg/kg, 2 months, control 11.4 ± 0.2",12.3 ± 0.3 mmol/L
same,Leukocyte,"[2]; male rats, suppositories rectally, 500 mg/kg, 2 months, control 19.1 ± 1.9",20.1 ± 1.7 thousand/mm^3
same,Haematocrite,"[2]; male rats, suppositories rectally, 500 mg/kg, 2 months, control 45.9 ± 1.8",49.4 ± 1.9%
same,Average volume of erythrocytes,"[2]; male rats, suppositories rectally, 500 mg/kg, 2 months, control 74.6 + 1.9",82.1 ± 1.4 Mkm^3
same,"Coagulation, time","[2]; male rats, suppositories rectally, 500 mg/kg, 2 months, control 316 ± 8",3171 ± 12 s
same,Thrombocytes,"[2]; male rats, suppositories rectally, 500 mg/kg, 2 months, control 593 ± 14",628 ± 23
"Nc1ccnc2c(=O)n([C@@H]3O[C@H](CO)[C@@H](O)[C@H]3O)[nH]c(=O)c12 [Compound 2, 4-amino-7-(β-D-ribofuranosile)pyrido[2,3-d]-6H-pyridazine-5,8-dione]",Bilirubin (urine),[3]; 50 mg/kg,<5 Mkmol/l
same,Glucose (urine),[3]; 50 mg/kg,<5 mmol/L
same,Ketone bodies (urine),[3]; 50 mg/kg,<1 mmol/L
same,Potassium (urine),[3]; 50 mg/kg,5.78 ± 1.7 g/L
same,Protein (urine),[3]; 50 mg/kg,0.69 ± 0.33 g/L
same,Sodium (urine),[3]; 50 mg/kg,1.7 ± 0.3 g/L
same,Urea (urine),[3]; 50 mg/kg,457 ± 144 mmol/L
same,Urobilinogen (urine),[3]; 50 mg/kg,<16 Mkmol/l
same,pH (urine),[3]; 50 mg/kg,6.1 ± 0.3
same,Bilirubin (urine),[3]; 500 mg/kg,<5 Mkmol/l
same,Glucose (urine),[3]; 500 mg/kg,<5 mmol/L
same,Ketone bodies (urine),[3]; 500 mg/kg,<1 mmol/L
same,Potassium (urine),[3]; 500 mg/kg,6.24 ± 1.8 g/L
same,Protein (urine),[3]; 500 mg/kg,0.76 ± 0.31 g/L
same,Sodium (urine),[3]; 500 mg/kg,1.27 ± 0.3 g/L
same,Urea (urine),[3]; 500 mg/kg,492 ± 187 mmol/L
same,Urobilinogen (urine),[3]; 500 mg/kg,<16 Mkmol/l
same,pH (urine),[3]; 500 mg/kg,6.2 ± 0.2
same,Average volume of erythrocytes,"[2]; rat, in vivo, 50 mg/kg",83.4 ± 1.4 Mkm^3
same,Basophiles,"[2]; rat, in vivo, 50 mg/kg",0%
same,Juveniles,"[2]; rat, in vivo, 50 mg/kg",0%
same,Reticulocytes,"[2]; rat, in vivo, 50 mg/kg",2.8 ± 0.2/2.8 ± 0.2%
same,Average volume of erythrocytes,"[2]; rat, in vivo, 500 mg/kg",85.2 ± 1.2 Mkm^3
same,Basophiles,"[2]; rat, in vivo, 500 mg/kg",0%
same,Juveniles,"[2]; rat, in vivo, 500 mg/kg",0%
"O=c1[nH][nH]c(=O)c2nccnc12.[Li] [Compound 25, lithium salt of pyrazine[2,3-d]-6H-pyridazine-5,8-dione]",Nitrites in thymus supernatant,[1]; Administration of compounds,0.417 ± 0.02 nmol/mg of protein
same,Thymus mass,[1]; Administration of compounds,254 ± 14 mg
same,Nitrites in thymus supernatant,[1]; [4],0.396 ± 0.02 nmol/mg of protein
same,Thymus mass,[1]; [4],218 ± 17 mg
